We go through one compound from article PMC4365380, “Synthesis and Biological Activity of Arylspiroborate Salts Derived from Caffeic Acid Phenethyl Ester” (International Journal of Medicinal Chemistry, 2015).

The target of the assay is T1, 5-lipoxygenase (5-LO) (Homo sapiens, UniProt P09917).
T1 construct: gene ALOX5
T1 sequence (P09917 1-674): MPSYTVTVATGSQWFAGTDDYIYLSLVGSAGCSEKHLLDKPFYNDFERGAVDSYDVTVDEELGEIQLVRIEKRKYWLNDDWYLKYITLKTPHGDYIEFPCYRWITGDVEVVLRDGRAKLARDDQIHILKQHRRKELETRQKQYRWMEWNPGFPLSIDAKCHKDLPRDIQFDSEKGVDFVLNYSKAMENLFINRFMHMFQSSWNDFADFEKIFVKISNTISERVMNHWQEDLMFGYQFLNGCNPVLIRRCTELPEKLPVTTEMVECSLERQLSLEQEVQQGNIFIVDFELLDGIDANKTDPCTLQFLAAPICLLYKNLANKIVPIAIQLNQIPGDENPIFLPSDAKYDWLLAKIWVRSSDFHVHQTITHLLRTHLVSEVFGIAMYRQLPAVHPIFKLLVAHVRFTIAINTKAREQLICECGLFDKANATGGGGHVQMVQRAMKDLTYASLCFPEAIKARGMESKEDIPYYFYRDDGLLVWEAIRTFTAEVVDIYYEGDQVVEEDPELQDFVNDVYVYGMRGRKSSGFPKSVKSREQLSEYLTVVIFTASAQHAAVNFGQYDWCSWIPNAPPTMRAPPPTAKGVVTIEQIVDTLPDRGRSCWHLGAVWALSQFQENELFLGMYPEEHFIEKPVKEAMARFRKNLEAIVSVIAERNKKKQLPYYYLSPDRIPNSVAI
T1 sequence (P20292 1-161 partner): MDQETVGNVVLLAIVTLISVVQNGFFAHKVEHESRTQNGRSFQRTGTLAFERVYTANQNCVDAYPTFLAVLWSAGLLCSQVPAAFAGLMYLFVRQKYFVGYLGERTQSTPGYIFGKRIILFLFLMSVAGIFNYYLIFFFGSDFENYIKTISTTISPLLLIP
The assay can be described thus: 5-LO product biosynthesis (RP-HPLC) in thapsigargin-stimulated human PMNL; also HEK293 cells expressing 5-LO and FLAP. To be noted: read-out: IC50 (μM) [SEM]^*. In kind it is cell-based.

As usually defined, the IC50 is the midpoint of a concentration-inhibition curve. Regarding `O=C(/C=C/c1ccc(O)c(O)c1)OCCc1ccccc1` [compound 3, CAPE], the IC50 was found to be 1.11 µM.
